# Calls of active or inactive are those of the source. How the calls were made is not given here.
# Target: Ras-related protein Rab-2A (Canis lupus familiaris) (UniProt P61105)
# Assay: Rab2 wildtype GTP-binding inhibitors, SAR follow-up, biochemical, additional analogs, bead-based flow cytometry, multiplex (AID 2046)
# Conditions: Rab2 wt
# Ras-related protein Rab-2A (Canis lupus familiaris), sequence (P61105 whole entry, looked up): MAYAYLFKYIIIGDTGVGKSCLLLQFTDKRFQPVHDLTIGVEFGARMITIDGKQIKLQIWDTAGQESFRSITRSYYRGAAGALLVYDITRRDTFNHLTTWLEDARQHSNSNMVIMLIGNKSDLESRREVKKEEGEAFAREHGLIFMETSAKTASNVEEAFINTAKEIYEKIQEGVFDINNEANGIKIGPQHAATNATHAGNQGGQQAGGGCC
row,EC50,SMILES
1,inactive,O=C1N=c2ccccc2=C1c1[nH]c(=S)[nH]c1O
2,inactive,O=C1C(c2c(O)[nH]c3ccccc23)=Nc2ccccc21
3,inactive,O=Nc1c(-c2c(O)[nH]c3ccccc23)[nH]c2ccccc12
4,inactive,O=C1C(c2c(O)[nH]c3ccc(Br)cc23)=Nc2ccccc21
5,inactive,O=Nc1c(-c2c(O)[nH]c3ccc(Br)cc23)[nH]c2ccccc12
6,inactive,O=Nc1c(-c2c(O)[nH]c3c(Br)cccc23)[nH]c2ccccc12
7,inactive,O=Nc1c(-c2c(O)[nH]c3c(Cl)cccc23)[nH]c2ccccc12
8,inactive,O=C1C(c2c(O)[nH]c3c(Cl)cccc23)=Nc2ccccc21
9,inactive,O=C1C(c2c(O)[nH]c3c(Br)cccc23)=Nc2ccccc21
10,inactive,O=C1C(c2c(O)[nH]c3c(F)cccc23)=Nc2ccccc21
11,inactive,O=C1N=c2ccccc2=C1c1[nH]c(=O)[nH]c1O
12,inactive,O=Nc1c(-c2c(O)[nH]c3c(F)cccc23)[nH]c2ccccc12

# Same assay, conditions: Rab2 wt, measured here: Ki from fitted EC50
row,Ki [µM],SMILES
1,0.11,COc1ccc2cc([C@@H](C)C(=O)O)ccc2c1
2,4.15,O=Nc1c(-c2c(O)[nH]c3ccc(Br)cc23)[nH]c2ccccc12
3,4.19,O=Nc1c(-c2c(O)[nH]c3c(Br)cccc23)[nH]c2ccccc12
